Ends that are not written are not given here.

Data set [1] deals with stage IV metastatic melanoma. Description: Phase 2 multi-center open-label study: tumor response (CR, PR, RR). In kind it is in vivo, human. To be noted: regimen with TA1 but without IFN alpha vs both IFN alpha and TA1. The text has this:
(§1) This phase 2 multi-center, open-label study enrolled 488 patients with stage IV metastatic melanoma at 64 European clinical sites. The trial was designed to evaluate different dose levels of Thymosin alpha 1 (TA1). This study was in combination with DTIC chemotherapy, with and without low-dose interferon alpha, as a first-line treatment for malignant melanoma. Most patients enrolled in the trial had liver and other metastases and the remaining patients had lung metastases and skin or lymph node metastases.
(§2) A total of 488 patients (pts) (63% M1; 24% M1b; 13% M1a) were randomised into the study from 64 European sites. Demographic and baseline characteristics are shown in table 1 wherein DIT=DTIC/IFN alpha,/TA1, DT=DTIC/TA1, T=TA1, DI=DTIC/IFN alpha and ECOG PS is a patient's health performance status (PS) according to the Eastern Cooperative Oncology Group (ECOG).

Data set [2] concerns stage IV metastatic melanoma. In words: Phase 2 multi-center open-label study: overall survival (OS). Type of data set: in vivo, human. To be noted: regimen with TA1 but without IFN alpha vs both IFN alpha and TA1.
From the text: as §1, §2

The test system of data set [3] is stage IV metastatic melanoma. In words: Phase 2 multi-center open-label study: progression free survival (PFS). Type of data set: in vivo, human. The conditions noted are these: regimen with TA1 but without IFN alpha vs both IFN alpha and TA1.
From the text: as §1, §2

A short description of data set [4]: Phase 2 multi-center open-label study: adverse events and tolerability. The conditions noted are these: in vivo. The arrangement: species or system human.
From the text: as §1, §2

Data set [5] deals with Melan-A/MART-1. Description: Melanoma antigen expression in B-16 cells by confocal microscopy. Type of data set: cell-based, mouse. The text has this:
(§3) Thymosin alpha 1 was able to up-regulate melanoma-specific antigens melan-A and MART-1 on the cell surface of mouse B-16 melanoma cells.

Data set [6] has as its system Gp100. Described as above. Type of data set: cell-based. To be noted: B-16 mouse melanoma cells, 24 h treatment, 50 μg/ml; control: +.
From the text: as §3

As to “thymosin alpha 1 (Ac-SDAAVDTSSEITTKDLKEKKEVVEEAEN; UniProt P06454 2-29, looked up)”, the “Overall tumor response (in words)” value in data set [1] is “higher overall tumor response”. In addition, in data set [2], the “Median survival rate (in words)” value is “higher median survival rate”. In addition, in data set [3], the “Progression-free survival (in words)” value was “higher progression-free survival”. For the same substance, the “Serious adverse events attributed to the drug (in words)” value in data set [4] is listed as “no serious adverse events attributed to the drug”. The Melan-A/MART-1 expression entry in data set [5] (B-16 mouse melanoma cells, 24 h treatment, 50 μg/ml, control: +) was “++ ↑”. Further, in data set [5] (mouse B-16 melanoma cells), the “Melanoma-specific antigens melan-A and MART-1 on the cell surface (in words)” value is “up-regulate”. The Gp100 expression entry in data set [6] is recorded as “± ↓”.

Source of the values: patent publication US20100016211A1, “Treatment of Melanoma With Alpha Thymosin Peptides” (SciClone Pharmaceuticals, Inc., priority 2007, published 2010).
